In patent US20100292231A1, “Indazole Compounds for Treating Inflammatory Disorders, Demyelinating Disorders and Cancers” (priority 2007, published 2010):
Changes are numbered by the printed parent chain. pEC50: −log10 of the molar value.

Key:
MLCK = target: T1, MLCK (Homo sapiens, UniProt Q9H1R3); assay: Kinase EC50 (10 pt curve or estimate, ATP Kmapp); assay type: biochemical; conditions: from 10 pt curve or estimate based on 1 μm inhibition assay at ATP Kmapp
T1 construct: purchased Invitrogen (SelectScreen platform)

BaF3-ITD = target: T2, BaF3-ITD (Homo sapiens, UniProt P36888, cells depend on it, form not given); assay: MTS cellular proliferation assay; assay type: cell-based; conditions: 72 hour incubation, read-out: Growth inhibitory activity (in vivo EC50 nM)
T2 sequence (P36888 1-993): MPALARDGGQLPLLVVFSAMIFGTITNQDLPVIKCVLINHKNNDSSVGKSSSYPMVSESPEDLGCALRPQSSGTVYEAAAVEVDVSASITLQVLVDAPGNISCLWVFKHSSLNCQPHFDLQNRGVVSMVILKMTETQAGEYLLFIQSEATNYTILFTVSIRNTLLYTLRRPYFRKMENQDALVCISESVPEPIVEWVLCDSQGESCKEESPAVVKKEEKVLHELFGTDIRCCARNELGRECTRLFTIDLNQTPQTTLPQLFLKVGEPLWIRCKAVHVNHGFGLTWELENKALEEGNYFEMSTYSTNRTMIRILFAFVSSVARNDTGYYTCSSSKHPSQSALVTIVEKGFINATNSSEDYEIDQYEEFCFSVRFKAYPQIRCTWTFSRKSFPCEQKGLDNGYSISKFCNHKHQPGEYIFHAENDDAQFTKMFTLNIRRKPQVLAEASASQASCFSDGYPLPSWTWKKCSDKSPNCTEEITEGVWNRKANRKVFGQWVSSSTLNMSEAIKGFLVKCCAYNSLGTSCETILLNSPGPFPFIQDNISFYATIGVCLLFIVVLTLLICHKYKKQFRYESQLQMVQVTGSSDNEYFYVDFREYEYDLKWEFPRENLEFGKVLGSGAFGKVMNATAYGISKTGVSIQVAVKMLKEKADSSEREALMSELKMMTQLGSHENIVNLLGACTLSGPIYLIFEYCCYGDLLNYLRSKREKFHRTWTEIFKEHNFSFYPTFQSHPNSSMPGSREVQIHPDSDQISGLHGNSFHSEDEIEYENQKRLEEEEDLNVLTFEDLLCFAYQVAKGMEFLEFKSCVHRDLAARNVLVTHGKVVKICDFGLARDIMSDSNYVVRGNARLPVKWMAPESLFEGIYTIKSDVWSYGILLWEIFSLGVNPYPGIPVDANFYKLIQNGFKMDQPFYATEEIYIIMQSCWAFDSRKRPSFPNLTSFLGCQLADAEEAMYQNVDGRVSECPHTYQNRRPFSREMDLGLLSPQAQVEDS
Source text: (§1) The viability of Flt3 expressing cells can be evaluated using a tetrazolium salt reduction cell-based assay. […] BaF3, both wild type and mutant, as well as transfected strains, MV4-11 and MOLM14 are well-characterized Flt3-dependent humanized or human cell lines which express active Flt3 receptors (see, Yee et al. Blood (2002)100 (8):2941-2949; Levis et al. (2002) 99(11): 3885-3891). These cell lines were used to determine the ability of the compounds provided herein to inhibit Flt3 in intact cells. In each case, and by methods known to those practiced in the art of cell culture, proliferation was measured after 72 hour incubation with the compounds provided herein using a standard MTS protocol (Promega Cat #5430 “Cell Titer 96 Aqueous Non-radioactive Cell Proliferation Assay”).
(§2) In general, cells were plated at 10,000-20,000 cells per well in DMEM medium with 0.5% serum. The compound plate was set up by aliquoting into column 1 of a 96 well 300 ul polypropylene plate, the negative control (DMSO), aliquoting into column 12 the positive control and titrating the test compound in serial dilutions into columns 2-1 l. An aliquot from each well of the compound plate was transferred to the plated cells and then incubated @ […] in 5% CO2. [00538] MTS tetrazolium compound (Owen's reagent) was thawed in a H2O bath. 20 μl of MTS tetrazolium was added to each well of optical plate and the cells were incubated @ 37° C. in 5% CO2 for 2 hours. The absorbance measured at 490 nm using a microplate reader.

BaF3-FLT3-WT + IL-3 = assay: MTS cellular proliferation assay; assay type: cell-based; conditions: 72 hour incubation, read-out: Growth inhibitory activity (in vivo EC50 nM)
Source text: as §1, §2

MOLM14 = assay: MTS cellular proliferation assay; assay type: cell-based; conditions: Homo sapiens, MOLM-14, 72 hour incubation, read-out: Growth inhibitory activity (in vivo EC50 nM)
Source text: as §1, §2

BaF3-D835Y = target: T3, BaF3-D835Y (Homo sapiens, UniProt P36888, D835Y, cells depend on it); assay: MTS cellular proliferation assay; assay type: cell-based; conditions: 72 hour incubation, read-out: Growth inhibitory activity (in vivo EC50 nM)
T3 sequence (P36888 1-993 D835Y): T2 sequence (P36888 1-993) with D835Y
Source text: as §1, §2

SMILES	pEC50 (MLCK)	EC50 (BaF3-ITD) [nM]	IC50 (BaF3-FLT3-WT + IL-3) [nM]	EC50 (MOLM14) [nM]	EC50 (BaF3-D835Y) [nM]
CN(C)CCNc1ccc2ncn3c4ccc5[nH]ncc5c4c(=O)c1c23 [(XII)]	7.74	–	–	–	–
CC(CCN1CCOCC1)Nc1ccc2ncn3c4ccc5[nH]ncc5c4c(=O)c1c23 (stereo not shown) [(XVI)]	7.28	–	–	–	–
CCN(CC)c1ccc2ncn3c4ccc5[nH]ncc5c4c(=O)c1c23 [(VI)]	–	74	1390	84	171
CN(C)CCCCCNc1ccc2ncn3c4ccc5[nH]ncc5c4c(=O)c1c23 [(III)]	–	223	752	–	887
CCN(CC)CCCNc1ccc2ncn3c4ccc5[nH]ncc5c4c(=O)c1c23 [Compound (XV)]	8.10	–	–	–	–
CN(C)c1ccc2ncn3c4ccc5[nH]ncc5c4c(=O)c1c23 [(IX)]	–	80	> 2000	82	723
CN1CCN(CCCNc2ccc3ncn4c5ccc6[nH]ncc6c5c(=O)c2c34)CC1 [(XVII)]	8.05	–	–	–	–
O=c1c2c(NCCCN3CCOCC3)ccc3ncn(c4ccc5[nH]ncc5c14)c32 [(X)]	7.28	35	492	90	79
CCN(CC)CCNc1ccc2ncn3c4ccc(O)cc4c(=O)c1c23 [Symadex, 5-(2-(diethylamino)ethylamino)-8-hydroxy-6H-imidazo[4,5,1-de]acridin-6-one, reference compound]	7.02	11.2	13.2	–	8.9
O=c1c2c(NCCN3CCOCC3)ccc3ncn(c4ccc5[nH]ncc5c14)c32 [Compound (V)]	–	90	246	333	172
CCN(CC)CCNc1ccc2ncn3c4ccc5[nH]ncc5c4c(=O)c1c23 [(VIII)]	–	30	341	627	129
CN(C)CCCNc1ccc2ncn3c4ccc5[nH]ncc5c4c(=O)c1c23 [Compound (IV)]	7.68	20	6	–	13
CNc1ccc2ncn3c4ccc5[nH]ncc5c4c(=O)c1c23 [(VII)]	–	36	356	60	158
